Source: US10987359B2, “Oxadiazepinone derivatives and methods of treating hepatitis B infections” (priority 2016, dated 2021)

test system: HBV; assay: HBV replication inhibition assay (BDNA assay) in HepG2.2.15 cells; assay type: cell-based; conditions: Hepatitis B virus, HepG2.2.15, HBV replication assay (BDNA assay), HepG2.2.15 cells; read-out: DNA EC50
Procedure, shortened: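 HepG2.2.15 cells with stably integrated HBV were treated with serially diluted compounds at 0.5% DMSO for 6 days, with medium and compound refreshed at day 3. Encapsidated HBV DNA from DNase-treated supernatant was quantified by branched DNA assay. EC50 came from % inhibition versus DMSO, fitted non-linearly.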

SMILES	EC50 [µM]
CN1OC(COC(=O)C(C)(C)C)Cn2nc3c(c2C1=O)CN(C(=O)Nc1ccc(F)c(Cl)c1)CC3 (stereo not shown) [Compound 055, (10-((3-chloro-4-fluorophenyl)carbamoyl)-2-methyl-1-oxo-1,2,4,5,8,9,10,11-octahydropyrido[4′,3′:3,4]pyrazolo[5,1-d][1,2,5]oxadiazepin-4-yl)methyl pivalate]	0.001 to 0.1
CCOC(=O)OCC1Cn2nc3c(c2C(=O)N(C)O1)CN(C(=O)Nc1ccc(F)c(Cl)c1)CC3 (stereo not shown) [Compound 056, (10-((3-chloro-4-fluorophenyl)carbamoyl)-2-methyl-1-oxo-1,2,4,5,8,9,10,11-octahydropyrido[4′,3′:3,4]pyrazolo[5,1-d][1,2,5]oxadiazepin-4-yl)methyl ethyl carbonate]	0.001 to 0.1
CN1OC(COC(N)=O)Cn2nc3c(c2C1=O)CN(C(=O)Nc1ccc(F)c(Cl)c1)CC3 (stereo not shown) [Compound 057, (10-((3-chloro-4-fluorophenyl)carbamoyl)-2-methyl-1-oxo-1,2,4,5,8,9,10,11-octahydropyrido[4′,3′:3,4]pyrazolo[5,1-d][1,2,5]oxadiazepin-4-yl)methyl carbamate]	0.001 to 0.1
CN(C)CC1Cn2nc3c(c2C(=O)N(C)O1)CN(C(=O)Nc1ccc(F)c(Cl)c1)CC3 (stereo not shown) [Compound 058, N-(3-chloro-4-fluoro-phenyl)-4-[(dimethylamino)methyl]-2-methyl-1-oxo-5,8,9,11-tetrahydro-4H-pyrido[2,3]pyrazolo[2,4-d][1,2,5]oxadiazepine-10-carboxamide]	0.001 to 0.1
CN(C)C(=O)OCC1Cn2nc3c(c2C(=O)N(C)O1)CN(C(=O)Nc1ccc(F)c(Cl)c1)CC3 (stereo not shown) [Compound 059, [10-[(3-chloro-4-fluoro-phenyl)carbamoyl]-2-methyl-1-oxo-5,8,9,11-tetrahydro-4H-pyrido[2,3]pyrazolo[2,4-d][1,2,5]oxadiazepin-4-yl]methyl N,N-dimethylcarbamate]	0.001 to 0.1
CC1CON(C)C(=O)c2c3c(nn21)CCN(C(=O)Nc1ccc(F)c(Cl)c1)C3 (stereo not shown) [Compound 061, N-(3-chloro-4-fluoro-phenyl)-2,5-dimethyl-1-oxo-5,8,9,11-tetrahydro-4H-pyrido[2,3]pyrazolo[2,4-d][1,2,5]oxadiazepine-10-carboxamide]	0.001 to 0.1
CC1Cn2nc3c(c2C(=O)N(C)O1)CN(C(=O)Nc1ccc(F)c(Cl)c1)CC3 (stereo not shown) [Compound 062, N-(3-chloro-4-fluorophenyl)-2,4-dimethyl-1-oxo-1,4,5,8,9,11-hexahydropyrido[4′,3′:3,4]pyrazolo[5,1-d][1,2,5]oxadiazepine-10(2H)-carboxamide]	0.001 to 0.1
CC1Cn2nc3c(c2C(=O)N(C)O1)CN(C(=O)Nc1cccc(Cl)c1)CC3 (stereo not shown) [Compound 063, N-(3-chlorophenyl)-2,4-dimethyl-1-oxo-1,4,5,8,9,11-hexahydropyrido[4′,3′:3,4]pyrazole [5,1-d][1,2,5]oxadiazepine-10(2H)-carboxamide]	0.001 to 0.1
CN1OC(C)(C)Cn2nc3c(c2C1=O)CN(C(=O)Nc1ccc(F)c(Cl)c1)CC3 [Compound 064, N-(3-chloro-4-fluoro-phenyl)-2,4,4-trimethyl-1-oxo-5,8,9,11-tetrahydro pyrido[2,3]pyrazolo[2,4-d][1,2,5]oxadiazepine-10-carboxamide]	0.001 to 0.1
COCC1Cn2nc3c(c2C(=O)N(C)O1)CN(C(=O)Nc1ccc(F)c(Cl)c1)CC3 (stereo not shown) [Compound 065, N-(3-chloro-4-fluoro-phenyl)-4-(methoxymethyl)-2-methyl-1-oxo-5,8,9,11-tetrahydro-4H-pyrido[2,3]pyrazolo[2,4-d][1,2,5]oxadiazepine-10-carboxamide]	0.001 to 0.1
CN1OCCn2nc3c(c2C1=O)CN(C(=O)Nc1ccc(F)c(Cl)c1)CC3 [Compound 066, N-(3-chloro-4-fluoro-phenyl)-2-methyl-1-oxo-5,8,9,11-tetrahydro-4H-pyrido[2,3]pyrazolo[2,4-c][1,2,5]oxadiazepine-10-carboxamide]	0.001 to 0.1
C=CCN1OCCn2nc3c(c2C1=O)CN(C(=O)Nc1ccc(F)c(Cl)c1)CC3 [Compound 067, 2-allyl-N-(3-chloro-4-fluoro-phenyl)-1-oxo-5,8,9,11-tetrahydro-4H-pyrido[2,3]pyrazolo[2,4-c][1,2,5]oxadiazepine-10-carboxamide]	0.001 to 0.1
CCCN1OCCn2nc3c(c2C1=O)CN(C(=O)Nc1ccc(F)c(Cl)c1)CC3 [Compound 068, N-(3-chloro-4-fluoro-phenyl)-1-oxo-2-propyl-5,8,9,11-tetrahydro-4H-pyrido[2,3]pyrazolo[2,4-c][1,2,5]oxadiazepine-10-carboxamide]	0.001 to 0.1
CC1Cc2nn3c(c2CN1C(=O)Nc1cccc(Cl)c1)C(=O)N(C)OC(CO)C3 (stereo not shown) [Compound 070, N-(3-chlorophenyl)-4-(hydroxymethyl)-2,9-dimethyl-1-oxo-5,8,9,11-tetrahydro-4H-pyrido[2,3]pyrazolo[2,4-d][1,2,5]oxadiazepine-10-carboxamide]	0.001 to 0.1
COC(=O)C1Cn2nc3c(c2C(=O)N(C)O1)CN(C(=O)Nc1ccc(F)c(Cl)c1)CC3 (stereo not shown) [Compound 071, methyl 10-[(3-chloro-4-fluoro-phenyl)carbamoyl]-2-methyl-1-oxo-5,8,9,11-tetrahydro-4H-pyrido[2,3]pyrazolo[2,4-d][1,2,5]oxadiazepine-4-carboxylate]	> 1
CN1OC(C(N)=O)Cn2nc3c(c2C1=O)CN(C(=O)Nc1ccc(F)c(Cl)c1)CC3 (stereo not shown) [Compound 072, N10-(3-chloro-4-fluoro-phenyl)-2-methyl-1-oxo-5,8,9,11-tetrahydro-4H-pyrido[2,3]pyrazolo[2,4-d][1,2,5]oxadiazepine-4,10-dicarboxamide]	0.001 to 0.1
CNC(=O)C1Cn2nc3c(c2C(=O)N(C)O1)CN(C(=O)Nc1ccc(F)c(Cl)c1)CC3 (stereo not shown) [Compound 073, N10-(3-chloro-4-fluoro-phenyl)-N4,2-dimethyl-1-oxo-5,8,9,11-tetrahydro-4H-pyrido[2,3]pyrazolo[2,4-d][1,2,5]oxadiazepine-4,10-dicarboxamide]	0.001 to 0.1
CN(C)C(=O)C1Cn2nc3c(c2C(=O)N(C)O1)CN(C(=O)Nc1ccc(F)c(Cl)c1)CC3 (stereo not shown) [Compound 074, N10-(3-chloro-4-fluoro-phenyl)-N4,N4,2-trimethyl-1-oxo-5,8,9,11-tetrahydro-4H-pyrido[2,3]pyrazolo[2,4-d][1,2,5]oxadiazepine-4,10-dicarboxamide]	0.001 to 0.1
C[C@@H]1Cc2nn3c(c2CN1C(=O)Nc1ccc(F)c(Cl)c1)C(=O)N(C)OCC3 [Compound 075, (9R)—N-(3-chloro-4-fluoro-phenyl)-2,9-dimethyl-1-oxo-5,8,9,11-tetrahydro-4H-pyrido[2,3]pyrazolo[2,4-c][1,2,5]oxadiazepine-10-carboxamide]	0.001 to 0.1
C[C@@H]1Cc2nn3c(c2CN1C(=O)Nc1ccc(F)c(C(F)(F)F)c1)C(=O)N(C)OCC3 [Compound 076, (R)—N-(4-fluoro-3-(trifluoromethyl)phenyl)-2,9-dimethyl-1-oxo-1,4,5,8,9,11-hexahydropyrido[4′,3′:3,4]pyrazolo[5,1-d][1,2,5]oxadiazepine-10(2H)-carboxamide]	0.001 to 0.1
C[C@@H]1Cc2nn3c(c2CN1C(=O)Nc1ccc(F)c(Br)c1)C(=O)N(C)OCC3 [Compound 077, (R)—N-(3-bromo-4-fluorophenyl)-2,9-dimethyl-1-oxo-1,4,5,8,9,11-hexahydropyrido[4′,3′:3,4]pyrazolo[5,1-d][1,2,5]oxadiazepine-10(2H)-carboxamide]	0.001 to 0.1
C[C@@H]1Cc2nn3c(c2CN1C(=O)Nc1ccnc(Br)c1F)C(=O)N(C)OCC3 [Compound 078, (R)—N-(2-bromo-3-fluoropyridin-4-yl)-2,9-dimethyl-1-oxo-1,4,5,8,9,11-hexahydropyrido[4′,3′:3,4]pyrazolo[5,1-d][1,2,5]oxadiazepine-10(2H)-carboxamide]	0.001 to 0.1
C[C@@H]1Cc2nn3c(c2CN1C(=O)Nc1ccc(F)c(C#N)c1)C(=O)N(C)OCC3 [Compound 079, (R)—N-(3-cyano-4-fluorophenyl)-2,9-dimethyl-1-oxo-1,4,5,8,9,11-hexahydropyrido[4′,3′:3,4]pyrazolo[5,1-d][1,2,5]oxadiazepine-10(2H)-carboxamide]	0.001 to 0.1
Cc1cc(NC(=O)N2Cc3c(nn4c3C(=O)N(C)OCC4)C[C@H]2C)ccc1F [Compound 080, (R)—N-(4-fluoro-3-methylphenyl)-2,9-dimethyl-1-oxo-1,4,5,8,9,11-hexahydropyrido[4′,3′:3,4]pyrazolo[5,1-d][1,2,5]oxadiazepine-10(2H)-carboxamide]	0.001 to 0.1
C[C@@H]1Cc2nn3c(c2CN1C(=O)Nc1cc(F)c(F)c(Cl)c1)C(=O)N(C)OCC3 [Compound 081, (R)—N-(3-chloro-4,5-difluorophenyl)-2,9-dimethyl-1-oxo-1,4,5,8,9,11-hexahydropyrido[4′,3′:3,4]pyrazolo[5,1-d][1,2,5]oxadiazepine-10(2H)-carboxamide]	0.001 to 0.1
CCOCC1Cn2nc3c(c2C(=O)N(C)O1)CN(C(=O)Nc1ccc(F)c(Cl)c1)CC3 (stereo not shown) [Compound 101, N-(3-chloro-4-fluoro-phenyl)-4-(ethoxymethyl)-2-methyl-1-oxo-5,8,9,11-tetrahydro-4H-pyrido[2,3]pyrazolo[2,4-d][1,2,5]oxadiazepine-10-carboxamide]	0.001 to 0.1
C=CCOCC1Cn2nc3c(c2C(=O)N(C)O1)CN(C(=O)Nc1ccc(F)c(Cl)c1)CC3 (stereo not shown) [Compound 102, 4-(allyloxymethyl)-N-(3-chloro-4-fluoro-phenyl)-2-methyl-1-oxo-5,8,9,11-tetrahydro-4H-pyrido[2,3]pyrazolo[2,4-d][1,2,5]oxadiazepine-10-carboxamide]	0.001 to 0.1
CCCOCC1Cn2nc3c(c2C(=O)N(C)O1)CN(C(=O)Nc1ccc(F)c(Cl)c1)CC3 (stereo not shown) [Compound 103, N-(3-chloro-4-fluoro-phenyl)-2-methyl-1-oxo-4-(propoxymethyl)-5,8,9,11-tetrahydro-4H-pyrido[2,3]pyrazolo[2,4-d][1,2,5]oxadiazepine-10-carboxamide]	0.001 to 0.1
